# According to paper PMC7195606 (Pharmacology, biochemistry, and behavior, 2020):
# Columns and labels:
# [1] = system: C57Bl/6J mice; assay: Organ weights normalized to body weight; format: in vivo; details: 20-160 mg/kg IP, normalized according to body weight
# [2] = system: C57Bl/6J mice; assay: Lethality; format: in vivo; details: 2 hr observation; for lethal effects: 20-160 mg/kg IP (MDPV up to 140 mg/kg)
# [3] = system: C57Bl/6J mice; assay: Rectal; format: in vivo; details: for effect on body temperature, females / effect on body temperature, males / maximal decrease in temperature, females / effect on body temperature / maximal decrease in temperature, males: single IP injection; for effect on body temperature, females / effect on body temperature, males / effect on body temperature: ambient 22-23 °C; for effect on body temperature: males and females
# [4] = system: C57Bl/6J mice; assay: Histological analysis of organs by hematoxylin-eosin staining; format: in vivo; details: at lethal doses
# [5] = ref Miner et al., 2017, cited from earlier work; for decrease in temperature after the first injection: first injection of a binge regimen
# [6] = lower doses (<10 mg/kg IP); ref not given; cited from earlier work
# [7] = ref Piao et al., 2015; cited from earlier work
SMILES,normalized heart weight [1],normalized liver weight [1],"effect on body temperature, females ([3]; females)","effect on body temperature, males ([3]; males)",liver histology (hematoxylin-eosin) [4],lethal effects [2],"maximal decrease in temperature, females ([3]; females)","time post injection with significant hypothermia vs baseline ([3]; males, 80 mg/kg IP)","maximal decrease in temperature, males ([3]; males)","time post injection with significant hypothermia vs baseline ([3]; males, 20 mg/kg IP)",further results
"CNC(C)Cc1ccc2c(c1)OCO2 (stereo not shown) [MDMA, 3,4-methylenedioxymethamphetamine]",increased normalized heart weight in a dose dependent manner,did not significantly affect liver weight,hypothermic effects,not significant at any dose,minor changes in cell morphology in the liver,,,,,,"LD50 as base ([2]; single IP injection, males and females pooled): 100.92 mg/kg; decrease in temperature after the first injection [5]: 3 °C"
"CCCC(C(=O)c1ccc2c(c1)OCO2)N1CCCC1 (stereo not shown) [MDPV, methylenedioxypyrovalerone]",,,,,,no lethal effects at any dose,≈ 2 °C,did not identify any significant differences,≈ 2 °C,,"time post injection with significant hypothermia vs baseline ([3]; females, 80 mg/kg IP): 20 min; time post injection with significant hypothermia vs baseline ([3]; females, 100 mg/kg IP): 20 min; time post injection with significant hypothermia vs baseline ([3]; females, 120 mg/kg IP): 20 min; effect on body temperature [3]: significant hypothermic effects in both males and females; time post injection with significant hypothermia vs baseline ([3]; males, 140 mg/kg IP): 20 min; effects on temperature ([5]; 1 mg/kg IP): did not find effects"
"C[C@H](N)C(=O)c1ccccc1 [CAT, cathinone]",,,,,,no lethal effects at any dose,≈ 7 °C,20 min,≈ 5 °C,20 min,"hyperthermia [6]: ≈ 1 °C; time post injection with significant hypothermia vs baseline ([3]; females, 40 mg/kg IP): lasted the entire duration of the experiment; time post injection with significant hypothermia vs baseline ([3]; males, 40 mg/kg IP): 20 min"
"CN[C@@H](C)Cc1ccccc1 [MA, methamphetamine]",increased normalized heart weight in a dose dependent manner,significantly increased normalized liver weight,no significant differences in temperature post-injection,increased body temperature,minor changes in cell morphology in the liver,,,,,,"timepoint of return of temperature to baseline ([3]; males, 40 mg/kg IP): ≤ 100 min"
CNC(C)C(=O)c1ccc2c(c1)OCO2 (stereo not shown) [methylone],,,,,,,,,,,LD50 compared with MA or MDMA [7]: slightly lower than that of MA or MDMA; decrease in temperature after the first injection [5]: 4 °C
"CNC(C)C(=O)c1ccccc1 (stereo not shown) [MCAT, methcathinone]",,,,,,this occurred at the highest dose and only in one subject,≈ 7 °C,failed to show significance,≈ 3 °C,20 min,"hyperthermia [6]: ≈ 1 °C; time of peak hypothermic effect after injection ([3]; both males and females): 60 min; effect on body temperature [3]: pronounced hypothermic effects; time post injection with significant hypothermia vs baseline ([3]; males, 120 mg/kg IP): did not identify an significant effects; time post injection with significant hypothermia vs baseline ([3]; males, 160 mg/kg IP): 60 min"
"CNC(C)C(=O)c1ccc(C)cc1 (stereo not shown) [MMC, 4-methyl-methcathinone]",increased normalized heart weight in a dose dependent manner,significantly increased normalized liver weight,profound hypothermic effects,greatest temperature decreases in males compared to the five other drugs,minor changes in cell morphology in the liver,,≈ 6 °C,,≈ 4 °C,20 min,"time post injection with significant hypothermia vs baseline ([3]; males, 120 mg/kg IP): 20 min"
